Results as given in patent US10143746B2, “Immunomodulators” (BRISTOL-MYERS SQUIBB COMPANY, priority 2016, dated 2018).
Where a SMILES comes first, the peptide text is derived from it. Bridges are numbered along the chain shown (N, C = ends). [ ]: non-standard residue; d: D form. Hyp = O=C(O)[C@@H]1C[C@@H](O)CN1; NMeNle = CCCC[C@H](NC)C(=O)O; NMeA = CN[C@@H](C)C(=O)O; Orn = NCCC[C@H](N)C(=O)O; Dab = NCC[C@H](N)C(=O)O; Sar = CNCC(=O)O

target: PD-1-Ig binding to PD-L1-TVMV-His (PD-L1-His) (Homo sapiens (Human), UniProt Q9NZQ7); assay: PD-1/PD-L1 Homogenous Time-Resolved Fluorescence (HTRF) binding assay (PD-1-Ig/PD-L1-His); conditions: PD-1-Ig (20 nM)/PD-L1-His (10 nM); range classes
Sequence (Q9NZQ7 other isoform, or with tags, fused parts or gaps): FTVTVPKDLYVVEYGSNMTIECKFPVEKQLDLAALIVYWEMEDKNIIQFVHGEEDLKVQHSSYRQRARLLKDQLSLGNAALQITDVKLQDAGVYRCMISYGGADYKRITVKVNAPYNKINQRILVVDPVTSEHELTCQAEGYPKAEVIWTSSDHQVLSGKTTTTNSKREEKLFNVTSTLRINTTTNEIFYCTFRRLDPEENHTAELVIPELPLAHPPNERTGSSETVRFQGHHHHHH
Description: Methods for Testing the Ability of Macrocyclic Compounds to Compete for the Binding of PD-1 to PD-L1 Using Homogenous Time-Resolved Fluorescence (HTRF) Binding Assays
The ability of the macrocyclic compounds of the present disclosure to bind to PD-L1 was investigated using a PD-1/PD-L1 Homogenous Time-Resolved Fluorescence (HTRF) binding assay.
Homogenous Time-Resolved Fluorescence (HTRF) Assays of Binding of Soluble PD-1 to Soluble PD-L1. Soluble PD-1 and soluble PD-L1 refers to proteins with carboxyl-end truncations that remove the transmembrane-spanning regions and are fused to heterologous sequences, specifically the Fc portion of the human immunoglobulin G sequence (Ig) or the hexahistidine epitope tag (His). All binding studies were performed in an HTRF assay buffer consisting of dPBS supplemented with 0.1% (w/v) bovine serum albumin and 0.05% (v/v) Tween-20. For the PD-1-Ig/PD-L1-His binding assay, inhibitors were pre-incubated with PD-L1-His (10 nM final) for 15 m in 4 μl of assay buffer, followed by addition of PD-1-Ig (20 nM final) in 1 μl of assay buffer and further incubation for 15 m. PD-L1 fusion proteins from either human, cynomologous macaques, mouse, or other species were used. HTRF detection was achieved using europium crypate-labeled anti-Ig monoclonal antibody (1 nM final) and allophycocyanin (APC) labeled anti-His monoclonal antibody (20 nM final). Antibodies were diluted in HTRF detection buffer and 5 μl was dispensed on top of binding reaction. […] Additional binding assays were established between PD-1-Ig/PD-L2-His (20 and 5 nM, respectively), CD80-His/PD-L1-Ig (100 and 10 nM, respectively) and CD80-His/CTLA4-Ig (10 and 5 nM, respectively).
Recombinant Proteins. […] Human PD-L2-His (Sino Biologicals), CD80-His (Sino Biologicals), CTLA4-Ig (RnD Systems) were all obtained through commercial sources.

Structure (SMILES)	IC50 [nM]
CCCC[C@H]1C(=O)N(C)[C@@H](CCCC)C(=O)N[C@@H](C)C(=O)N[C@H](C(=O)NCC(N)=O)CSCC(=O)N[C@@H](Cc2ccc(O)cc2)C(=O)N(C)[C@@H](C)C(=O)N[C@H]2CCNC(=O)CC[C@H](NC(=O)[C@H](Cc3cnc[nH]3)NC(=O)[C@@H]3CCCN3C2=O)C(=O)N2C[C@H](O)C[C@H]2C(=O)N[C@@H](Cc2c[nH]c3ccccc23)C(=O)N[C@@H](CO)C(=O)N[C@@H](Cc2c[nH]c3ccccc23)C(=O)N1C [Example 1504] ({CH2CO}-Y[NMeA][Dab]PHE[Hyp]WSW[NMeNle][NMeNle]ACG-NH2; lactam 3-6; thioether N-14)	10 to 99
CCCC[C@H]1C(=O)N(C)[C@@H](CCCC)C(=O)N[C@H]2CCC(=O)NCCC[C@H](NC(=O)[C@H](Cc3c[nH]c4ccccc34)NC(=O)CN(C)C(=O)[C@H](CC(C)C)NC(=O)[C@H](Cc3c[nH]cn3)NC(=O)[C@@H]3CCCN3C(=O)[C@H](CC(N)=O)NC(=O)[C@H](C)N(C)C(=O)[C@H](Cc3ccccc3)NC(=O)CSC[C@@H](C(=O)NCC(N)=O)NC2=O)C(=O)N[C@@H](Cc2c[nH]c3ccccc23)C(=O)N1C [Example 5003] ({CH2CO}-F[NMeA]NPHL[Sar]W[Orn]W[NMeNle][NMeNle]ECG-NH2; lactam 9-13; thioether N-14)	10 to 99
CCCC[C@H]1C(=O)N(C)[C@@H](CCCC)C(=O)N[C@@H](CCCNC(=N)N)C(=O)N[C@H](C(=O)NCC(N)=O)CSCC(=O)N[C@@H](Cc2ccc(O)cc2)C(=O)N(C)[C@@H](C)C(=O)N[C@H]2CCNC(=O)CC[C@H](NC(=O)[C@H](C)NC(=O)[C@@H]3CCCN3C2=O)C(=O)N2C[C@H](O)C[C@H]2C(=O)N[C@@H](Cc2c[nH]c3ccccc23)C(=O)N[C@@H](CO)C(=O)N[C@@H](Cc2c[nH]c3ccccc23)C(=O)N1C [Example 1400] ({CH2CO}-Y[NMeA][Dab]PAE[Hyp]WSW[NMeNle][NMeNle]RCG-NH2; lactam 3-6; thioether N-14)	10 to 99
CCCC[C@H]1C(=O)N(C)[C@@H](CCCC)C(=O)N[C@H]2CCCCNC(=O)CC[C@H](NC(=O)[C@H](Cc3c[nH]c4ccccc34)NC(=O)CN(C)C(=O)[C@H](CC(C)C)NC(=O)[C@H](Cc3c[nH]cn3)NC(=O)[C@@H]3CCCN3C(=O)[C@H](CC(N)=O)NC(=O)[C@H](C)N(C)C(=O)[C@H](Cc3ccccc3)NC(=O)CSC[C@@H](C(=O)NCC(N)=O)NC2=O)C(=O)N[C@@H](Cc2c[nH]c3ccccc23)C(=O)N1C [Example 5002] ({CH2CO}-F[NMeA]NPHL[Sar]WEW[NMeNle][NMeNle]KCG-NH2; lactam 9-13; thioether N-14)	10 to 99

Other lines, results leading:

IC50 [nM]	Structure (SMILES)
10 to 99	CCCC[C@H]1C(=O)N(C)[C@@H](CCCC)C(=O)N[C@@H](C)C(=O)N[C@H](C(=O)NCC(N)=O)CSCC(=O)N[C@@H](Cc2ccc(O)cc2)C(=O)N(C)[C@@H](C)C(=O)N[C@H]2CCCNC(=O)CC[C@H](NC(=O)[C@H](Cc3cnc[nH]3)NC(=O)[C@@H]3CCCN3C2=O)C(=O)N2C[C@H](O)C[C@H]2C(=O)N[C@@H](Cc2c[nH]c3ccccc23)C(=O)N[C@@H](CO)C(=O)N[C@@H](Cc2c[nH]c3ccccc23)C(=O)N1C [Example 1506] ({CH2CO}-Y[NMeA][Orn]PHE[Hyp]WSW[NMeNle][NMeNle]ACG-NH2; lactam 3-6; thioether N-14)
3 to 9.9	CCCC[C@H]1C(=O)N(C)[C@@H](CCCC)C(=O)N[C@H]2CCC(=O)NCCCC[C@H](NC(=O)[C@H](Cc3c[nH]c4ccccc34)NC(=O)[C@@H]3C[C@@H](O)CN3C(=O)[C@H](CC(C)C)NC(=O)[C@H](Cc3c[nH]cn3)NC(=O)[C@@H]3CCCN3C(=O)[C@H](CC(N)=O)NC(=O)[C@@H](C)NC(=O)[C@H](Cc3ccc(O)cc3)NC(=O)CSC[C@@H](C(=O)NCC(N)=O)NC2=O)C(=O)N[C@@H](Cc2c[nH]c3ccccc23)C(=O)N1C [Example 5008] ({CH2CO}-Y[dA]NPHL[Hyp]WKW[NMeNle][NMeNle]ECG-NH2; lactam 9-13; thioether N-14)
